Values of other authors as cited in patent publication US10561746B2, “Gel formulations for guiding radiotherapy” (DANMARKS TEKNISKE UNIVERSITET, priority 2013, dated 2020).

Substance: H-(FEFEFKFK)2-OH [FEK16]
- concentration at which self-assembled hydrogels form (in the presence of mM concentrations of NaCl, KCl, and CaCl2): > 10000 µg/mL
- solubility in pure H2O (pure H2O): highly soluble
